One series deals with ATM kinase (Homo sapiens, UniProt Q13315). Briefly: Inhibitory activity against ATM kinase (p53 substrate, HTRF). It counts as biochemical. As to the method: (§1) ATM kinase solution (concentration: 25 ng/μL) was added to assay wells at 6 μL/well, and different compounds dissolved in DMSO were added to the assay wells separately using a nanoliter pipettor, such that the final concentrations of the compounds were 10000 nM to 2.44 nM. In this experiment, the wells were set in duplicate, and a control well was set. After incubation of the above system for 30 min at room temperature, ATP (100 μM) was mixed with p53 substrate (50 nM) at a ratio of 1:1, and the mixture was added at 4 μL/well. The resulting mixture was left to react at room temperature for 2 h, and then 5 μL of EDTA was added to terminate the reaction, followed by addition of 5 μL of detection antibodies, Mab Anti-phospho p53 and Mab Anti GST-d2 (manufacturer: perkinelmer). The mixture was incubated at room temperature for 1 h. The plate was read using a PerkinElmer Envision multifunctional microplate reader (excitation: 320 nm, emission: 620 nm/665 nm), and IC50 was calculated by four-parameter fitting.
On the technique in general: Time-resolved FRET reads energy transfer from a long-lived donor to a nearby acceptor.

Series [1] deals with ATR/ATPIP (ATR-interacting protein) kinase (Homo sapiens, UniProt Q13535). Description: Inhibitory activity against ATR kinase (p53 substrate, HTRF). Format: biochemical. As to the method:
as §1, with “ATR/ATPIP (ATR-interacting protein)” for “ATM”, “50” for “25”, “(5” for “(100”

Series [2] concerns the target DNA-PK (DNA-dependent protein kinase) (Homo sapiens, UniProt P78527). Briefly: Inhibitory activity against DNA-PK (p53 substrate, HTRF). It counts as biochemical. As to the method: as §1, with “DNA-PK” for “ATM”, “0.15” for “25”
For series [3], the system named is CHK2 phosphorylation of NCI-H2228 cells. Description: Inhibitory activity against CHK2 phosphorylation of NCI-H2228 cells (p-CHK2 Thr68 AlphaLISA). Format: cell-based. The note with it: Homo sapiens. The protocol: NCI-H2228 cells in a good growth state were collected, added to a centrifuge tube, adjusted to a cell density of 1.25×10^6 cells/mL, and seeded in a 384-well plate (8 μL/well). The cells were equilibrated in a cell incubator for 1.5 h, and then compounds were added using a nanoliter pipettor, such that the final concentrations of the compounds were 200 nM to 0.049 nM. In this experiment, the wells were set in duplicate, and a control well was set. After the mixture was further cultured for 1 h in the cell incubator, an assay was performed using a p-CHK2 (Thr68) assay kit (manufacturer: perkinelmer) and the Envision microplate reader AlphaLISA program. A four-parameter analysis was performed, a dose-response curve was fit, and IC50 was calculated.

A short description of series [4]: In vivo pharmacokinetics (Table 4). The note with it: for AUC(0-inf) / AUC(0-t) / half-life / MRT last / Vd / Cmax / Tmax: plasma; for MRT last: read-out: MRT(0-t); for Vd: read-out: Vz.

Read-outs that look alike come from different tables or passages of the source. Where only a bound is given, the exact number is not on record here.

Chain of ATM kinase (Q13315 whole entry): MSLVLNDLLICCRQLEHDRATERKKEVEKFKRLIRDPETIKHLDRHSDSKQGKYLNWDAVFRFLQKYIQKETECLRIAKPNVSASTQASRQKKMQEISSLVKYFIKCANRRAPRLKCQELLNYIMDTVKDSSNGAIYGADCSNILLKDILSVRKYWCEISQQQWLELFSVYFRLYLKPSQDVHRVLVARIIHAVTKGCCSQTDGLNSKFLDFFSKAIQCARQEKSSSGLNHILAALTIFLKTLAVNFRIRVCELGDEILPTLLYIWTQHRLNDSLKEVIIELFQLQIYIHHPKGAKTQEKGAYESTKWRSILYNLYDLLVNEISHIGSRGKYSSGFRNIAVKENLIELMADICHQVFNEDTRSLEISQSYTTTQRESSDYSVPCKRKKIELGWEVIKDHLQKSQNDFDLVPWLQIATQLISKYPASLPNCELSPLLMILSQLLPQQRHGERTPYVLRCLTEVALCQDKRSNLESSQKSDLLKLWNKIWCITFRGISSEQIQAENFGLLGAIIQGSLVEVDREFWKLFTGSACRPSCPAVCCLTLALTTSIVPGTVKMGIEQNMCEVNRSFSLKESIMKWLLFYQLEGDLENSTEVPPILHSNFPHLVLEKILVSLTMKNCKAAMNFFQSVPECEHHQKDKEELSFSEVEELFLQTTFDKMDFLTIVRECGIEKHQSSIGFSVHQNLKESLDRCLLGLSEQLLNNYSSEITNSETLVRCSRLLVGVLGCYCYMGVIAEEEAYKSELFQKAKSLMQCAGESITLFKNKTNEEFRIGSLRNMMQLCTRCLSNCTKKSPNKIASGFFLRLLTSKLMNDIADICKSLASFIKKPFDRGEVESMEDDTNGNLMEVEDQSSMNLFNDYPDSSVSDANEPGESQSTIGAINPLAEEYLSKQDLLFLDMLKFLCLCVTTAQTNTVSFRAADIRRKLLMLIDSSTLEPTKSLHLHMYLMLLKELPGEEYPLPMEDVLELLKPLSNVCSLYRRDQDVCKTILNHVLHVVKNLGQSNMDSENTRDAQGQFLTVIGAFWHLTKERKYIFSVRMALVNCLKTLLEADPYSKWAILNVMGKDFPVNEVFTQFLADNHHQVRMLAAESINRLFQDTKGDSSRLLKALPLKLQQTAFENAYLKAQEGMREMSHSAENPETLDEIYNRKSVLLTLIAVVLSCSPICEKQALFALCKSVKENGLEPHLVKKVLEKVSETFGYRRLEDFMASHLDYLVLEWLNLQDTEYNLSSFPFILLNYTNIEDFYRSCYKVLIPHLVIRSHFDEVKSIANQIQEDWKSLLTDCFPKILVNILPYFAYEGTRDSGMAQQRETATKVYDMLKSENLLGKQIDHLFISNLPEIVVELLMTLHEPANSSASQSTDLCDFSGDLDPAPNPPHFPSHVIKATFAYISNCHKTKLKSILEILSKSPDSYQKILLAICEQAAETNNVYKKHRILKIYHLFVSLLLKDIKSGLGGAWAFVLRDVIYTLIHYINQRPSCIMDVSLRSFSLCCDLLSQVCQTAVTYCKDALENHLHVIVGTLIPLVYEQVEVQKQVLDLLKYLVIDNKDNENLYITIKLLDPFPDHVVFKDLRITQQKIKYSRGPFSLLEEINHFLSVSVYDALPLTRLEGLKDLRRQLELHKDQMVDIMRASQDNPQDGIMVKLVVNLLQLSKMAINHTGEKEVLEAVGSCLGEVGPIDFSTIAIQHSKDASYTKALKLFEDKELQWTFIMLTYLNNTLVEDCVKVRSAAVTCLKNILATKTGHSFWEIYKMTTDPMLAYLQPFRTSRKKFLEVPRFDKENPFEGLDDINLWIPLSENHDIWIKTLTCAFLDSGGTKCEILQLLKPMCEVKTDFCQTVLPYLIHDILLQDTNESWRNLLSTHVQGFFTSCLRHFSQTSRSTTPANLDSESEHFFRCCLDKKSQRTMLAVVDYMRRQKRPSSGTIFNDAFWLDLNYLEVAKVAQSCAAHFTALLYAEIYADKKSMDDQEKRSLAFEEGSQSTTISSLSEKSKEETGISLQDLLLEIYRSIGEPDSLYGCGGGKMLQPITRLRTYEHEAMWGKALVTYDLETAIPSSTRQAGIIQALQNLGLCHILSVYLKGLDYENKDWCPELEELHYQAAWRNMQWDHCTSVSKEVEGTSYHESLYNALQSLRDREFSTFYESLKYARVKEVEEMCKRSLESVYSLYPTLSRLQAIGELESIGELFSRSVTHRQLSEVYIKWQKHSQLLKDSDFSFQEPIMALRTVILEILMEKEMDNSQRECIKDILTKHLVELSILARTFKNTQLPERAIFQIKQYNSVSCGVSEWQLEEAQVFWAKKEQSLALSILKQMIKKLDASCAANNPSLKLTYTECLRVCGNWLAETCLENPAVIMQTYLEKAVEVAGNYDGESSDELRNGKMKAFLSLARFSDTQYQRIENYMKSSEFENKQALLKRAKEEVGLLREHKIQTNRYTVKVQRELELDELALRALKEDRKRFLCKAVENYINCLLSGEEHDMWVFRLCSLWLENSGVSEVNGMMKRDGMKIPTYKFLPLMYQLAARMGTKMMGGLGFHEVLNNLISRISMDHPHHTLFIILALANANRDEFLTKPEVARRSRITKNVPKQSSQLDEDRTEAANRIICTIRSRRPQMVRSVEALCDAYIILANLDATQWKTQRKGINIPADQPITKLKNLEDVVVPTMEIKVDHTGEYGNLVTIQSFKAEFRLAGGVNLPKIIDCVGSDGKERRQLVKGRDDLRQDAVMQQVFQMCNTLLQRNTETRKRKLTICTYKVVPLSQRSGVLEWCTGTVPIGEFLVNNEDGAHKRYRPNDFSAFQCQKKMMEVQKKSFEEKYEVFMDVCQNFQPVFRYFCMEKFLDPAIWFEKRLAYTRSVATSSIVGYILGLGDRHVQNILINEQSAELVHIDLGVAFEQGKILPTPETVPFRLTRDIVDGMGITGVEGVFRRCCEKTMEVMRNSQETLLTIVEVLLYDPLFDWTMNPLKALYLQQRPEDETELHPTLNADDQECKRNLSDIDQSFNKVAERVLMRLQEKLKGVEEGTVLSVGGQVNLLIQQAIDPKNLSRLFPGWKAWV

For orientation: IC50 means the concentration at which inhibition is half-maximal. A lower IC50 goes with greater potency in that assay. In the case of `CC(C)n1c(=O)n(N)c2cnc3ccc(-c4ccc(OCCCN5CCCCC5)nc4)cc3c21` [Example 1], the IC50 against ATM kinase is less than 50 nM; in series [1], 289 nM; in series [2], more than 1000 nM.

In the case of `CC(C)n1c(=O)n(N)c2cnc3cc(F)c(-c4ccc(OCCCN5CCC(CF)C5)nc4)cc3c21` (centres unmarked) [Example 25], the IC50 was less than 50 nM against ATM kinase, more than 1000 nM in series [2] and less than 50 nM in series [3].

As to `COc1cc2ncc3c(c2cc1-c1ccc(OCCCN2CCCCC2)nc1)n(C(C)C)c(=O)n3N` [Example 16], the figures for the IC50 (against ATM kinase; in series [1]; in series [2]) were less than 50 nM, more than 1000 nM and more than 1000 nM, respectively.

As to `CC(C)n1c(=O)n(N)c2cnc3cc(F)c(-c4ccc(OCCCN5CCC(F)(F)C5)nc4)cc3c21` [Example 26], the IC50 was less than 50 nM at ATM kinase, more than 1000 nM in series [2] and less than 50 nM in series [3].

Consider `[2H]C([2H])([2H])Nn1c(=O)n(C(C)C)c2c3cc(-c4ccc(OCCCN5CCCCC5)nc4)c(F)cc3ncc21` [Example 8], for which the results for the IC50 (at ATM kinase; in series [1]; in series [2]) were less than 50 nM, more than 1000 nM and more than 1000 nM, respectively.

Usually AUC(0-inf) stands for total exposure, with the tail of the curve extrapolated. Broadly, the AUC(0-t) is the area under the concentration-time curve up to a stated or last time point. A lower AUC(0-t) goes with low exposure. As a reminder, the half-life is the time needed for the level to fall by half in the phase considered. Low readings indicate fast loss, high ones slow loss. The Cmax is the peak of the concentration-time curve. One may read the Tmax as the time from dosing to the highest level. Regarding `CC(C)n1c(=O)n(N)c2cnc3cc(F)c(-c4ccc(OCCCN5C6CCC5CC6)nc4)cc3c21` [Example 27], the IC50 against ATM kinase was less than 50 nM. This compound also displayed an IC50 in series [2] of more than 1000 nM. The IC50 in series [3] was less than 50 nM. Also, in series [4] (IG 10 mg/kg vs IV 1 mg/kg), the “Absolute F” value came out at 115.39%. This compound returned a CLz in series [4] (IV, 1 mg/kg) of 59.7 mL/min/kg. For the same compound, in series [4] (iv, 1 mg/kg), the AUC(0-inf) came out at 280 ng·h/mL, the AUC(0-t) was 271 ng·h/mL, the half-life is 1.87 h and the MRT last is 1.43 h. Besides, the Vd in series [4] (iv, 1 mg/kg) worked out at 6.11 L/kg. Besides, in series [4] (po, IG, 10 mg/kg), the AUC(0-inf) is 3190 ng·h/mL, the AUC(0-t) was 3130 ng·h/mL, the concentration peaked (Cmax) at 342 ng/mL and the Tmax amounted to 2 h. Moreover, in series [4] (po, IG, 10 mg/kg), the half-life is 4.12 h and the MRT last turned out to be 5.7 h.

Take `COc1cc2ncc3c(c2cc1-c1ccc(OCCCN2CCCCC2)nc1)n(-c1c(F)cncc1OC)c(=O)n3N` [Example 30]: the 50% inhibitory concentration (IC50) at ATM kinase was less than 50 nM; in series [1], 8090 nM; in series [2] it was more than 10000 nM.

Turning to `COc1cc2ncc3c(c2cc1-c1ccc(OCCCN2CCCCC2)nc1)n(C1CC1)c(=O)n3N` [Example 10], the IC50 against ATM kinase is less than 50 nM; in series [1], more than 1000 nM; in series [2], more than 1000 nM.

As for `COc1cc2ncc3c(c2cc1-c1ccc(OCCCN2CCCC2)nc1)n(C1CC1)c(=O)n3N` [Example 11], the IC50 is less than 50 nM against ATM kinase, more than 1000 nM in series [1], more than 1000 nM in series [2] and less than 50 nM in series [3].

As to `Nn1c(=O)n(C2CCOCC2)c2c3cc(-c4ccc(OCCCN(C5CC5)C5CC5)nc4)c(F)cc3ncc21` [Example 6], the results for the IC50 (against ATM kinase; in series [1]; in series [2]) were less than 50 nM, more than 1000 nM and more than 1000 nM, respectively.

Regarding `COC1CCC(n2c(=O)n(N)c3cnc4cc(F)c(-c5ccc(OCCCN6CCCC6)nc5)cc4c32)C1` (centres unmarked) [Example 13], the IC50 at ATM kinase was less than 50 nM; in series [1], more than 1000 nM; in series [2], more than 1000 nM; in series [3] it was less than 50 nM.

As to `Nn1c(=O)n(C2CC2)c2c3cc(-c4ccc(OCCCN5CCCCC5)nc4)c(F)cc3nnc21` [Example 36], the IC50 at ATM kinase is less than 50 nM; in series [1] it was more than 10000 nM; in series [2], more than 10000 nM.

In turn, `CC(C)n1c(=O)n(N)c2cnc3cc(F)c(-c4ccc(OCCCN5CC6(CCC6)C5)nc4)cc3c21` [Example 29] returned an IC50 at ATM kinase of less than 50 nM. Further, the IC50 in series [2] was more than 1000 nM. This compound also came in with an IC50 in series [3] of less than 50 nM. Moreover, in series [4] (iv, 1 mg/kg), the AUC(0-inf) was 3160 ng·h/mL, the AUC(0-t) stood at 3140 ng·h/mL, the half-life is 3.22 h and the MRT last came out at 3.29 h. In addition, the Vd in series [4] (iv, 1 mg/kg) is 1.09 L/kg. In series [4] (po, IG, 10 mg/kg), the AUC(0-inf) is 27300 ng·h/mL, the AUC(0-t) was 27000 ng·h/mL, the Cmax was 2300 ng/mL and the Tmax was 4 h. Besides, in series [4] (po, IG, 10 mg/kg), the half-life was 3.51 h and the MRT last worked out at 5.99 h.

`CNn1c(=O)n(C(C)C)c2c3cc(-c4ccc(OCCCN5CCCC5)nc4)c(F)cc3nnc21` [Example 35]: the IC50 at ATM kinase was less than 50 nM; in series [1], more than 10000 nM; in series [2], more than 10000 nM.

Consider `CC(C)n1c(=O)n(N)c2cnc3cc(F)c(-c4ccc(OCC5CC(N6CCCC6)C5)nc4)cc3c21` (centres unmarked) [Example 22], for which the IC50 against ATM kinase is less than 50 nM; in series [2], more than 1000 nM; in series [3] it was less than 50 nM.

Turning to `CC(C)n1c(=O)n(N)c2cnc3cc(F)c(-c4ccc(OCCCN5CC(CF)C5)nc4)cc3c21` [Example 28], on ATM kinase, the IC50 was less than 50 nM. The compound further registered an IC50 in series [2] of more than 1000 nM. In addition, the IC50 in series [3] is less than 50 nM. In addition, in series [4] (iv, 1 mg/kg), the AUC(0-inf) was found to be 2240 ng·h/mL, the AUC(0-t) stood at 2230 ng·h/mL, the half-life was 3.1 h and the MRT last came to 3.24 h. The Vd in series [4] (iv, 1 mg/kg) was found to be 1.5 L/kg. Further, in series [4] (po, IG, 10 mg/kg), the AUC(0-inf) was determined as 17300 ng·h/mL, the AUC(0-t) stood at 17200 ng·h/mL, the Cmax was determined as 1630 ng/mL and the Tmax was 4 h. In series [4] (po, IG, 10 mg/kg), the half-life was 3.04 h and the MRT last is 5.56 h.

For the compound `Nn1c(=O)n(C2CC2)c2c3cc(-c4ccc(OCCCN5CCCC5)nc4)c(F)cc3nnc21` [Example 37], the figures for the IC50 (against ATM kinase; in series [1]; in series [2]) were less than 50 nM, more than 10000 nM and more than 10000 nM, respectively.

Take `Nn1c(=O)n(C2CCOCC2)c2c3cc(-c4ccc(OCCCN5CCCCC5)nc4)c(F)cc3ncc21` [Example 15]: the values for the IC50 (on ATM kinase; in series [1]; in series [2]) were less than 50 nM, more than 1000 nM and more than 1000 nM, respectively.

With `CC(C)n1c(=O)n(N)c2cnc3cc(F)c(-c4ccc(OCCCN(C5CC5)C5CC5)nc4)cc3c21` [Example 4], the results for the IC50 (at ATM kinase; in series [1]; in series [2]) were less than 50 nM, more than 1000 nM and more than 1000 nM, respectively.

In the case of `CC(C)n1c(=O)n(N)c2nnc3cc(F)c(-c4ccc(OCCCN5CCCC5)nc4)cc3c21` [Example 34], the IC50 at ATM kinase was less than 50 nM; in series [1], more than 10000 nM; in series [2], more than 10000 nM.

On to `CC(C)n1c(=O)n(N)c2nnc3cc(F)c(-c4ccc(OCCCN5CCCCC5)nc4)cc3c21` [Example 32], for which the IC50 in series [3] was less than 50 nM.

On to `CC(C)n1c(=O)n(N)c2cnc3cc(F)c(-c4ccc(OCCCN5CC(F)(F)C5)nc4)cc3c21` [Example 24], for which the results for the IC50 (against ATM kinase; in series [2]; in series [3]) were less than 50 nM, more than 1000 nM and less than 50 nM, respectively.

Take `COC1CCC(n2c(=O)n(N)c3cnc4cc(F)c(-c5ccc(OCCCN6CCCCC6)nc5)cc4c32)C1` (centres unmarked) [Example 12]: the IC50 is less than 50 nM at ATM kinase, more than 1000 nM in series [1] and more than 1000 nM in series [2].

As to `CC(C)n1c(=O)n(N)c2cnc3cc(F)c(-c4ccc(OCCCN5CC(F)C5)nc4)cc3c21` [Example 23], the results for the IC50 (against ATM kinase; in series [2]; in series [3]) were less than 50 nM, more than 1000 nM and less than 50 nM, respectively.

In the case of `CNn1c(=O)n(C(C)C)c2c3cc(-c4ccc(OCCCN5CCCCC5)nc4)c(F)cc3nnc21` [Example 33], the IC50 against ATM kinase was less than 50 nM; in series [1] it was more than 10000 nM; in series [2] it was more than 10000 nM.

The values above are taken from patent US20260250277A1, “HYDRAZINO GROUP-CONTAINING COMPOUND” (CHIA TAI TIANQING PHARMACEUTICAL GROUP CO., LTD., priority 2022, published 2026).
